Reference: patent publication US10130590B2, “Methods of treating cancer with atovaquone-related compounds” (DANA-FARBER CANCER INSTITUTE, INC., priority 2013, dated 2018)
“Also recorded” adds a separate entry of the source.

Assays:
U266 cells = assay: Cell viability (Cell Titer Glo), U266; format: cell-based, human; conditions: 72 hours
Description: Western blotting was performed as previously described (Battle T E, Arbiser J, & Frank D A (2005) The natural product honokiol induces caspase dependent apoptosis in B-cell chronic lymphocytic leukemia (B-CLL) cells. Blood 106(2):690-697). Antibodies to phospho-MAPK (9101), total MAPK (9102), phospho-Y705 STAT3 (9131), phospho-S6 (2215), total S6 (2217), phospho-4E-BP1 (9451), total 4E-BP1 (9644), total RSK (9355), phospho-S6K (9234, 85 used at 1:5000), total S6K (2708), phospho-eIF2α (9721, used at 1:1000), total eIF2α (5324), ATF4 (11815, used at 1:1000), PDGFRβ (3169), IGF1Rβ (9750), EGFR (2232), and HER2 (2242) were from Cell Signaling Technology. Phospho-RSK antibody was from R&D (AF889). Antibodies to total STAT3 (sc-482) and gp130 (sc-656, used at 1:1000) were from Santa Cruz Biotechnology. Phospho-S727 STAT3 antibody was described previously (229). REDD1 antibody was from Proteintech (10638-1-AP, used at 1:1000). Antibody recognizing full-length and cleaved ATF6 was from Abcam (ab122897, used at 1:1000). Antibodies to tubulin (T5168) and beta actin (A5316) were from Sigma. All antibodies were used at 1:10000 dilution for western blot unless otherwise noted. […] Cell viability was measured as ATP-dependent luminescence by Cell Titer Glo (Promega). […]

mTOR pathway = assay: Western blot of S6 phosphorylation in TSC2 or REDD1 knockout MEFs; format: cell-based, mouse; conditions: 25 μM, 2.5 hours
Description: Mouse embryonic fibroblasts (MEFs) were cultured in DMEM+10% FBS. TSC2-null (see, Zhang et al. J Clin Invest. 2003; 112(8):1223-1233) and REDD1-null (see, Sofer et al. Mol. Cell. Biol. July 2005 vol. 25 no. 14 5834-5845) MEFs, along with MEFs from the littermate controls, were kind gifts from Dr. John Blenis and Dr. Leif Ellisen, respectively. HEL (see, Iwama et al. Mol. Cell. Biol. June 1999 vol. 19 no. 6 3940-3950) was a kind gift of Dr. Daniel G. Tenen and grown in RPMI-1640+10% FBS. OCI-AML2 and OCI-AML3 (see, Grunberger et al. Blood Dec. 1, 2003 vol. 102 no. 12 4153-4158), and MOLM-13 (German Collection of Microorganisms and Cell Cultures (DSMZ, Braunschweig, Germany)) were kind gifts of Dr. James D. Griffin and grown in RPMI-1640+10% FBS. MM.1S (ATCC) was a kind gift of Dr. Kenneth C. Anderson and grown in RPMI-1640+10% FBS. SET2 (see, Koppikar et al. Nature 489, 155-159 (6 Sep. 2012)) was a kind gift of Dr. Ross L. Levine and grown in RPMI-1640+10% FBS. HL60 (ATCC) was a kind gift of Dr. James D. Griffin and grown in RPMI-1640+10% FBS. […] Molecular Pharmacology 78(5):903-908; and Walker S R, et al. (2009) Reciprocal effects of STAT5 and STAT3 in breast cancer. Molecular Cancer Research: MCR 7(6):966-976). Peripheral blood mononuclear cells (PBMCs) were isolated from healthy donors by Ficoll density gradient centrifugation and maintained in RPMI-1640+10% FBS. […]

[1] = clinical use; cited from earlier work

## O=C1C(O)=C([C@H]2CC[C@H](c3ccc(Cl)cc3)CC2)C(=O)c2ccccc21 [atovaquone, trans-2-[4-(4-chlorophenyl)cyclohexyl]-3-hydroxy-1,4-naphthalenedione]
U266 cells
  viability of U266 cells: killed
mTOR pathway
  S6 phosphorylation in MEFs with knockout of TSC2 or REDD1: no effect on S6 phosphorylation
[1]
  side effects / tolerability: side effects are minimal; also recorded: extremely well-tolerated in humans
